Data on 16 compounds can be found in patent US12590118B2, “Salt and crystal form of steroid derivative regulator” (Shanghai Hansoh Biomedical Co., Ltd., priority 2019, dated 2026).

In the experiment the target is GABA-A receptor. Put plainly: 35S-TBPS binding assay (GABAA receptor binding ability assay). Also noted: species or system Sprague-Dawley rat. The following applies: rat cerebral cortex cell membrane, 5 μM GABA, 2 nM 35S-TBPS; read-out: IC50 on inhibiting the TBPS binding activity, 35S-TBPS bindng assay. The procedure: 1. The cerebral cortex of male Sprague-Dawley rat was isolated.
2. A pre-chilled 0.32 M sucrose solution (one tablet of protease inhibitor was added per 100 mL) was added to the cerebral cortex (the volume of sucrose solution was 10 times the volume of the cerebral cortex). The mixture was crushed with a 50 mL glass tissue homogenizer in batches and mixed well.
3. The mixture was centrifuged at 1,500 g, 4° C. for 10 minutes, and the supernatant was collected.
4. The mixture was centrifuged at 20,000 g, 4° C. for 30 minutes, and the supernatant was discarded.
5. The precipitate was resuspended with the pre-chilled phosphate buffer saline (PBS) (one tablet of protease inhibitor was added per 100 mL). An average of 4 mL of PBS was added per rat, and the mixture was mixed well with a glass tissue homogenizer.
6. The mixture was centrifuged at 10,000 g, 4° C. for 10 minutes, and the supernatant was discarded.
7. Steps 5 and 6 were repeated three times.
8. Finally, the precipitate was resuspended with 4 volumes of PBS. The resulting solution was dispensed, frozen in liquid nitrogen, and stored at −80° C.
9. The protein concentration was measured by the bicinchoninic acid (BCA) method.
1. 230 μL of PBS was added to each well of a well plate with 1.1 mL volume.
2. 60 μL of the cerebral cortex cell membrane (5 μg/μL) solution was added to each well, and the mixture was mixed well.
3. The test compound (3 μL per well) was added, and the plate was incubated at 25° C. for 5 minutes. The DMSO concentration was 1%. The initial compound concentration was […], and a
3-fold dilution in gradient was carried out to obtain a total of 8 gradients and 2 replicates. 1% DMSO was used as a negative control, and 10 μM P026-2 was used as a positive control.
4. GABA was added at a final concentration of 5 μM, and incubated at 25° C. for 5 minutes. 1 mM GABA solution was formulated, and 1.5 μL of the solution was added to each well.
5. 35S-TBPS was added at a final concentration of 2 nM. The concentration of isotope mother solution was 9.7 μM. After dilution with PBS for 100 times, 6 μL of the diluted isotope solution was added to each well.
6. The plate was incubated at 4° C. for 20 hours.
7. The FilterMate GF/C plate was pre-treated with 0.5% PEI, and incubated at 4° C. for 1 hour.
8. The FilterMate GF/C plate was washed with Universal Harvester twice, 50 mL PBS each time.
9. The reaction solution was transferred to the GF/C plate, and each well was washed 4 times with 900 μL of PBS.
10. The washed GF/C plate was placed at 55° C. and dried for 10 minutes.
11. 40 μL of scintillation solution was added to each well, and the CPM value was read with TopCount.
In the experiment, the CPM (counts per minute) value was read with TopCount. According to the readings of the High control (DMSO) and the Low control (10 μM of the positive compound) experimental groups, the % inhibition was calculated based on the following formula: % Inhibition=100×(CPMHigh control−CPMsample)/(CPMHigh control−CPMLow control)
The IC50 of the compound was calculated according to the following 4-parameter nonlinear logic formula: Y=Bottom+(Top−Bottom)/(1+10^((Log IC50−X)*HillSlope)),
wherein: • X represents the log of compound concentration, • Y represents the % Inhibition.
The effect of the compound of the present invention on the TBPS binding activity was determined by the above test, and the measured IC50 values are shown in Table 5.
Turning to `C[C@@]1(O)CC[C@H]2[C@H](CC[C@@H]3[C@@H]2CC[C@@]2(C)[C@H]3[C@H](C3CC3)C[C@@H]2C(=O)Cn2ccc(C(F)(F)F)n2)C1` [Example 97, 1-((3R,5R,8R,9R,10S,13S,14S,15S,17S)-15-Cyclopropyl-3-hydroxy-3,13-dimethylhexadecahydro-1H-cyclopenta[a]phenanthren-17-yl)-2-(3-(trifluoromethyl)-1H-pyrazol-1-yl)ethan-1-one], the IC50 (as a rule, the concentration at which inhibition is half-maximal) was found to be 18.6 nM.

Turning to `C[C@@H]1C[C@H](C(=O)Cn2cc(C#N)c(C3CC3)n2)[C@@]2(C)CC[C@H]3[C@@H](CC[C@@H]4C[C@](C)(O)CC[C@@H]43)[C@H]12` [Example 47, 3-Cyclopropyl-1-(2-((3R,5R,8R,9R,10S,13S,14S,15R,17S)-3-hydroxy-3,13,15-trimethylhexadecahydro-1H-cyclopenta[a]phenanthren-17-yl)-2-oxoethyl)-1H-pyrazole-4-carbonitrile], the IC50 worked out at 7.6 nM.

Turning to `C[C@@]1(O)CC[C@H]2[C@H](CC[C@@H]3[C@@H]2CC[C@@]2(C)[C@H]3[C@@H]3C[C@@H]3[C@@H]2C(=O)Cn2nccn2)C1` [Example 5, 1-((2R,4aS,4bR,6aS,7S,7aS,8aR,8bR,8cR,10aR)-2-Hydroxy-2,6a-dimethyloctadecahydrocyclopropa[4,5]cyclopenta[1,2-a]phenanthren-7-yl)-2-(2H-1,2,3-triazol-2-yl)ethan-1-one], the IC50 was 14.7 nM.

Turning to `Cc1nn(CC(=O)[C@H]2[C@H]3C[C@H]3[C@H]3[C@@H]4CC[C@@H]5C[C@](C)(O)CC[C@@H]5[C@H]4CC[C@@]32C)cc1C#N` [Example 28, 1-(2-((2R,4aS,4bR,6aS,7S,7aS,8aR,8bR,8cR,10aR)-2-Hydroxy-2,6a-dimethyloctadecahydrocyclopropa[4,5]cyclopenta[1,2-a]phenanthren-7-yl)-2-oxoethyl)-3-methyl-1H-pyrazole-4-carbonitrile], the IC50 was 15.4 nM.

With `C[C@@]1(O)CC[C@H]2[C@H](CC[C@@H]3[C@@H]2CC[C@@]2(C)[C@H]3[C@@H]3C[C@@H]3[C@@H]2C(=O)Cn2cc(-c3ncco3)cn2)C1` [Example 85, 1-((2R,4aS,4bR,6aS,7S,7aS,8aR,8bR,8cR,10aR)-2-Hydroxy-2,6a-dimethyloctadecahydrocyclopropa[4,5]cyclopenta[1,2-a]phenanthren-7-yl)-2-(4-(oxazol-2-yl)-1H-pyrazol-1-yl)ethan-1-one], the IC50 worked out at 15.8 nM.

For the compound `C[C@@H]1C[C@H](C(=O)Cn2cc(C(F)(F)F)cn2)[C@@]2(C)CC[C@H]3[C@@H](CC[C@@H]4C[C@](C)(O)CC[C@@H]43)[C@H]12` [Example 39, 1-((3R,5R,8R,9R,10S,13S,14S,15R,17S)-3-Hydroxy-3,13,15-trimethylhexadecahydro-1H-cyclopenta[a]phenanthren-17-yl)-2-(4-(trifluoromethyl)-11H-pyrazol-1-yl)ethan-1-one], the IC50 was 6.2 nM.

Consider `C[C@@]1(O)CC[C@H]2[C@H](CC[C@@H]3[C@@H]2CC[C@@]2(C)[C@H]3[C@@H]3C[C@@H]3[C@@H]2C(=O)Cn2cc(F)cn2)C1` [Example 30, 2-(4-Fluoro-1H-pyrazol-1-yl)-1-((2R,4aS,4bR,6aS,7S,7aS,8aR,8bR,8cR,10aR)-2-hydroxy-2,6a-dimethyloctadecahydrocyclopropa[4,5]cyclopenta[1,2-a]phenanthren-7-yl)ethan-1-one], for which the IC50 stood at 28.7 nM.

On to `CC[C@@H]1C[C@H](C(=O)Cn2nnc(C)n2)[C@@]2(C)CC[C@H]3[C@@H](CC[C@@H]4C[C@](C)(O)CC[C@@H]43)[C@H]12` [Example 92, 1-((3R,5R,8R,9R,10S,13S,14S,15R,17S)-15-Ethyl-3-hydroxy-3,13-dimethylhexadecahydro-1H-cyclopenta[a]phenanthren-17-yl)-2-(5-methyl-2H-tetrazol-2-yl)ethan-1-one], for which the IC50 stood at 27 nM.

As for `C[C@@]1(O)CC[C@H]2[C@H](CC[C@@H]3[C@@H]2CC[C@@]2(C)[C@H]3[C@H](C3CC3)C[C@@H]2C(=O)Cn2cc(C#N)c(Cl)n2)C1` [Example 99, 3-Chloro-1-(2-((3R,5R,8R,9R,10S,13S,14S,15S,17S)-15-cyclopropyl-3-hydroxy-3,13-dimethylhexadecahydro-1H-cyclopenta[a]phenanthren-17-yl)-2-oxoethyl)-1H-pyrazole-4-carbonitrile], the 50% inhibitory concentration (IC50) stood at 24.4 nM.

In the case of `C[C@@]1(O)CC[C@H]2[C@H](CC[C@@H]3[C@@H]2CC[C@@]2(C)[C@H]3[C@@H]3C[C@@H]3[C@@H]2C(=O)Cn2cc([N+](=O)[O-])cn2)C1` [Example 73, 1-((2R,4aS,4bR,6aS,7S,7aS,8aR,8bR,8cR,10aR)-2-Hydroxy-2,6a-dimethyloctadecahydrocyclopropa[4,5]cyclopenta[1,2-a]phenanthren-7-yl)-2-(4-nitro-1H-pyrazol-1-yl)ethan-1-one], the IC50 is 10.2 nM.

As for `CC[C@@H]1C[C@H](C(=O)Cn2nc(C#N)cc2C#N)[C@@]2(C)CC[C@H]3[C@@H](CC[C@@H]4C[C@](C)(O)CC[C@@H]43)[C@H]12` [Example 95, 1-(2-((3R,5R,8R,9R,10S,13S,14S,15R,17S)-15-Ethyl-3-hydroxy-3,13-dimethylhexadecahydro-1H-cyclopenta[a]phenanthren-17-yl)-2-oxoethyl)-1H-pyrazole-3,5-dicarbonitrile], the IC50 stood at 16.2 nM.

For the compound `CC[C@@H]1C[C@H](C(=O)Cn2ccc(C(F)(F)F)n2)[C@@]2(C)CC[C@H]3[C@@H](CC[C@@H]4C[C@](C)(O)CC[C@@H]43)[C@H]12` [Example 91, 1-((3R,5R,8R,9R,10S,13S,14S,15R,17S)-15-Ethyl-3-hydroxy-3,13-dimethylhexadecahydro-1H-cyclopenta[a]phenanthren-17-yl)-2-(3-(trifluoromethyl)-1H-pyrazol-1-yl)ethan-1-one], the IC50 came to 25.2 nM.

As to `C[C@@H]1C[C@H](C(=O)Cn2cc(Cl)cn2)[C@@]2(C)CC[C@H]3[C@@H](CC[C@@H]4C[C@](C)(O)CC[C@@H]43)[C@H]12` [Example 68, 2-(4-Chloro-1H-pyrazol-1-yl)-1-((3R,5R,8R,9R,10S,13S,14S,15R,17S)-3-hydroxy-3,13,15-trimethylhexadecahydro-1H-cyclopenta[a]phenanthren-17-yl)ethan-1-one], the IC50 came to 9.6 nM.

On to `CC[C@@H]1C[C@H](C(=O)Cn2ncnn2)[C@@]2(C)CC[C@H]3[C@@H](CC[C@@H]4C[C@](C)(O)CC[C@@H]43)[C@H]12` [Example 100, 1-((3R,5R,8R,9R,10S,13S,14S,15R,17S)-15-Ethyl-3-hydroxy-3,13-dimethylhexadecahydro-1H-cyclopenta[a]phenanthren-17-yl)-2-(2H-tetrazol-2-yl)ethan-1-one], for which the IC50 turned out to be 25.6 nM.

For the compound `C[C@@]1(O)CC[C@H]2[C@H](CC[C@@H]3[C@@H]2CC[C@@]2(C)[C@H]3[C@@H]3C[C@@H]3[C@@H]2C(=O)Cn2nc(C#N)cc2C#N)C1` [Example 84, 1-(2-((2R,4aS,4bR,6aS,7S,7aS,8aR,8bR,8cR,10aR)-2-Hydroxy-2,6a-dimethyloctadecahydrocyclopropa[4,5]cyclopenta[1,2-a]phenanthren-7-yl)-2-oxoethyl)-1H-pyrazole-3,5-dicarbonitrile], the IC50 amounted to 6.1 nM.

In the case of `CCOC(=O)c1cnn(CC(=O)[C@H]2[C@H]3C[C@H]3[C@H]3[C@@H]4CC[C@@H]5C[C@](C)(O)CC[C@@H]5[C@H]4CC[C@@]32C)c1` [Example 35, Ethyl 1-(2-((2R,4aS,4bR,6aS,7S,7aS,8aR,8bR,8cR,10aR)-2-hydroxy-2,6a-dimethyloctadecahydrocyclopropa[4,5]cyclopenta[1,2-a]phenanthren-7-yl)-2-oxoethyl)-1H-pyrazole-4-carboxylate], the IC50 was determined as 5 nM.
